Legend:
GluT-1 = GluT-1 protein levels in SCC-25 cells (Western blot); type: cell-based, Human; settings: 10 and 25 μM, 16 hours, FIG. 1B
Protocol: Human SSC-25 (squamous cell carcinoma) or rat H9c2 (ventricular cardiomyocyte) cells were grown to confluence in 100 mm culture dishes at 37° C., 10% CO2 in DMEM with 10% fetal calf serum. Cells were then washed twice with PBS and incubated with vehicle control, compound D (10 and 25 μM), or compound C (5, 10, and 20 μM) for 16 hours. Plates were placed on ice, culture supernatant was removed, and lysis buffer-1 (LB-1: 10 mM Tris pH 7.4, 1 mM EDTA, 150 mM sodium chloride, 0.5% IGEPAL) was added. Cell lysates were harvested by scraping, incubated for 15 minutes on ice, and then centrifuged at 3000×g for 5 minutes at 4° C. The supernatant, which represents the cytosolic fraction, was collected and cytosolic proteins were separated under reducing conditions using SDS-polyacrylamide gel electrophoresis (SDS-PAGE) with equal amounts of protein loaded per lane.
SDS-PAGE was conducted at 150 V for 2 hours, after which the proteins were transferred to a PVDF membrane at 400 mA for 1.5 hours at 4° C. The membrane was incubated in blocking buffer for 2 hours or overnight and washed once with T-TBS prior to addition of anti-GluT-1 antibody (Alpha Diagnostics) diluted to working concentration in blocking buffer. […]

[1] = tested on: inducible nitric oxide synthase (iNOS); assay: In vivo iNOS mRNA expression (quantitative PCR); set-up: species or system Swiss Webster male mice; settings: mice, oral gavage; within 8 hours following treatment, then returned to control levels; normalized to 18S rRNA; FIG. 10A
Protocol: To determine gene induction patterns over time, twenty four Swiss Webster male mice (30-32 g) were obtained from Simonsen, Inc. and treated by oral gavage with a 4 ml/kg volume of either 0.5% carboxymethyl cellulose (CMC; Sigma-Aldrich, St. Louis Mo.) (0 mg/kg/day) or […] compound B (25 mg/ml in 0.5% CMC) (100 mg/kg). At 4, 8, 16, 24, 48, or 72 hours after the final dose, animals were anesthetized with isoflurane. The mice were then sacrificed and tissue samples of kidney, liver, brain, lung, and heart were isolated and stored in RNALATER solution (Ambion) at −80° C.
To investigate the dose response of compounds of the present invention, twelve Swiss Webster male mice (30-32 g) (obtained from Simonsen, Inc., Gilroy Calif.) were treated by oral gavage once per day for 4 days with a 4 ml/kg volume of either 0.5% carboxymethyl cellulose (CMC; Sigma-Aldrich, St. Louis Mo.), compound D (25 mg/ml in 0.5% CMC) (100 mg/kg/day), or compound B (7.5 and 25 mg/ml in 0.5% CMC) (30 and 100 mg/kg/day, respectively). Four hours after the final dose, animals were anesthetized, sacrificed, and approximately 150 mg of liver and each kidney were isolated and stored in RNALATER solution (Ambion) at −20° C.
Hypertension is a risk factor for diabetes and disorders and diseases associated with diabetes. The effects of compounds of the present invention on regulation of blood pressure were examined as follows. Animals were treated with compound B or compound D and RNA samples were prepared as described above in Example 4. […] Analysis of the relative level of gene expression was performed by quantitative PCR using a FASTSTART DNA MASTER SYBR GREEN I kit (Roche) and gene-specific primers, using a LIGHTCYCLER system (Roche), according to manufacturer's instructions. […]
The relative level of 18S ribosomal RNA gene expression was measured as a control. Quantitative PCR was performed using a QUANTITECT SYBR GREEN PCR kit (Qiagen) and gene-specific primers, using a LIGHTCYCLER system (Roche), according to manufacturer's instructions. […]

HIF-1α = HIF-1α stabilization in cells, nuclear fraction Western blot; type: cell-based, Human; settings: various cell types, overnight incubation, 20% O2; FIG. 12A
Protocol: Stabilization of HIFα using compounds and methods of the present invention was examined as follows. Human cells derived from adenovirus-transformed fetal kidney epithelium (293A), cervical epithelial adenocarcinoma (HeLa), hepatocellular carcinoma (Hep3B), squamous carcinoma (SSC-25), and lung fibroblast (HLF) (see, e.g., American Type Culture Collection, Manassas Va.; and Qbiogene, Carlsbad Calif.) were separately seeded into 100 mm culture dishes and grown at 37° C., 20% O2, 10% CO2 in media as follows: HeLa cells in Dulbecco's Modification of Eagle's Medium (DMEM), 2% fetal bovine serum (FBS); HLF cells in DMEM, 10%FBS; 293A cells in DMEM, 5%FBS; and Hep3B cells in Minimal Essential Medium (MEM), Earle's BSS (Mediatech Inc., Herndon Va.), 2 mM L-glutamine, 0.1 mM non-essential amino acids, 1 mM sodium pyruvate, 10% FBS. When cell layers reached confluence, the media was replaced with OPTI-MEM media (Invitrogen Life Technologies, Carlsbad Calif.) and cell layers were incubated for approximately 24 hours in 20% O2, 10% CO2 at 37° C. Compound of the invention (one of compounds B, F, G, and H) or DMSO (0.5 to 1%) was then added to existing medium, and incubation was continued overnight.
Following incubation, the media was removed, centrifuged, and stored for analysis. […]

## O=C(O)c1c[nH]c2c(ccc3cccnc32)c1=O [compound D, 4-Oxo-1,4-dihydro-[1,10]phenanthroline-3-carboxylic acid]
GluT-1
  protein levels of GluT-1: increased
[1]
  expression of the gene encoding iNOS: increased
HIF-1α
  HIFα stabilization (Western blot): stabilized HIFα in a dose-dependent manner
